# Measurements from ChEMBL document CHEMBL5055685, “Discovery of the First Potent IDO1/IDO2 Dual Inhibitors: A Promising Strategy for Cancer Immunotherapy” (J Med Chem, 2021).
# Active and inactive are the calls of the source. No cut-off for these calls is given here.
# Experiments:
# [1] = AUC (0 to infinity) in Sprague-Dawley rat at 5 mg/kg, iv; assay type: ADME, organism-based; parameters: time infinity, dose 5 mg/kg, route iv; conditions: Sprague-Dawley, in vivo
# [2] = biological target: Indoleamine 2,3-dioxygenase 1 (Homo sapiens, UniProt P14902); assay: Inhibition of IDO1 in IFNgamma-stimulated human HeLa cells assessed as reduction in kynurenine formation measured after 48 hrs by spectrophotometry
# [3] = Half life in mouse liver microsomes; assay type: ADME, Microsome
# [4] = tested on: Mus musculus; assay: In vivo inhibition of IDO1/IDO2 in BALB/c mouse xenografted with human HCT-116 cells assessed as reduction in KYN level in serum by […]; assay type: functional, organism-based
# [5] = tested on: HCT-116; assay: Antitumor immunity in BALB/c mouse xenografted with human HCT-116 cells assessed as increase in IL-2 in serum by […]; assay type: functional, cell-based
# [6] = tested on: HCT-116; assay: Antitumor immunity in BALB/c mouse xenografted with human HCT-116 cells assessed as increase in TNFalpha in serum by […]; assay type: functional, cell-based
# [7] = tested on: HCT-116; assay: Antitumor immunity in BALB/c mouse xenografted with human HCT-116 cells assessed as induction of apoptosis of CD4+ T-lymphocytes in tumor-draining lymph nodes by propidium iodide staining based flow cytometry analysis (reference value: 21.9 %); assay type: functional
# [8] = biological target: Aryl hydrocarbon receptor (Homo sapiens, UniProt P35869); assay: Activation of AhR (unknown origin) assessed as effect on CYP1A1 mRNA expression measured after 24 hrs by quantitative RT-PCR analysis; assay type: ADME
# [9] = biological target: Activin receptor type-1 (Homo sapiens) (UniProt Q04771); assay: Inhibition of ALK2 (unknown origin) at 1 uM
# [10] = biological target: Activin receptor type-1B (Homo sapiens) (UniProt P36896); assay: Inhibition of ALK4 (unknown origin) at 1 uM
# [11] = biological target: TGF-beta receptor type-1 (Homo sapiens) (UniProt P36897); assay: Inhibition of ALK5 (unknown origin) at 1 uM
# [12] = biological target: Tyrosine-protein kinase Blk (Homo sapiens) (UniProt P51451); assay: Inhibition of BLK (unknown origin) at 1 uM
# Chain of Tyrosine-protein kinase Blk (Homo sapiens) (P51451 2-505 limits assumed): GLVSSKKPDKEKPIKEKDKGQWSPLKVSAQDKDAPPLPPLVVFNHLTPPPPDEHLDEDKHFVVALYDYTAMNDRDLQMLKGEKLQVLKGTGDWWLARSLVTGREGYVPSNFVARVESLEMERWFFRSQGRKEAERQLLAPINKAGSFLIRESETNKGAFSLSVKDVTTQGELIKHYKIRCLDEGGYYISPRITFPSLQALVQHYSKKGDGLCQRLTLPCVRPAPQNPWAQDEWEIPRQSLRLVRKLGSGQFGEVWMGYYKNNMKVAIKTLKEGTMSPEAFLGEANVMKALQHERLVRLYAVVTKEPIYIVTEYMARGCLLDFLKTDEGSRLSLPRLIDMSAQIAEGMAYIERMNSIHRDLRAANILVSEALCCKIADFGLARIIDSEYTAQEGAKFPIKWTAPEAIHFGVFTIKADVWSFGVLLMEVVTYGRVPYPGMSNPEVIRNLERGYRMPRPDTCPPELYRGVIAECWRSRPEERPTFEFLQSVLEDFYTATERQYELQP
# [13] = biological target: Tyrosine-protein kinase BTK (Homo sapiens) (UniProt Q06187); assay: Inhibition of BTK (unknown origin) at 1 uM
# [14] = biological target: Mast/stem cell growth factor receptor Kit (Homo sapiens) (UniProt P10721); assay: Inhibition of c-KIT (unknown origin) at 1 uM
# [15] = biological target: Calcium/calmodulin-dependent protein kinase type 1 (Homo sapiens) (UniProt Q14012); assay: Inhibition of CAMK1A (unknown origin) at 1 uM
# Chain of Calcium/calmodulin-dependent protein kinase type 1 (Homo sapiens) (Q14012 whole entry, looked up): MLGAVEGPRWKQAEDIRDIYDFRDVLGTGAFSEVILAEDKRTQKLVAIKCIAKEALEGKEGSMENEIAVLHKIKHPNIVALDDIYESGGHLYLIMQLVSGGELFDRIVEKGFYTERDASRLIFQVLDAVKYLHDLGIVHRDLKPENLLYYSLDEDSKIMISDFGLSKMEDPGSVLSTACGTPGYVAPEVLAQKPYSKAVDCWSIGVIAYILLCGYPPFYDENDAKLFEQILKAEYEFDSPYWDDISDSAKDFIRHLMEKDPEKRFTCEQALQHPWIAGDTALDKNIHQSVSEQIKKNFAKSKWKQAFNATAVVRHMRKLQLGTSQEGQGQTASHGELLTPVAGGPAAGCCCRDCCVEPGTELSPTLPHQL
# [16] = biological target: Calcium/calmodulin-dependent protein kinase type II subunit delta (Homo sapiens) (UniProt Q13557); assay: Inhibition of CAMK2D (unknown origin) at 1 uM
# [17] = biological target: Casein kinase I isoform gamma-3 (Homo sapiens) (UniProt Q9Y6M4); assay: Inhibition of CK1gamma3 (unknown origin) at 1 uM
# Chain of Casein kinase I isoform gamma-3 (Homo sapiens) (Q9Y6M4 whole entry, looked up, canonical isoform): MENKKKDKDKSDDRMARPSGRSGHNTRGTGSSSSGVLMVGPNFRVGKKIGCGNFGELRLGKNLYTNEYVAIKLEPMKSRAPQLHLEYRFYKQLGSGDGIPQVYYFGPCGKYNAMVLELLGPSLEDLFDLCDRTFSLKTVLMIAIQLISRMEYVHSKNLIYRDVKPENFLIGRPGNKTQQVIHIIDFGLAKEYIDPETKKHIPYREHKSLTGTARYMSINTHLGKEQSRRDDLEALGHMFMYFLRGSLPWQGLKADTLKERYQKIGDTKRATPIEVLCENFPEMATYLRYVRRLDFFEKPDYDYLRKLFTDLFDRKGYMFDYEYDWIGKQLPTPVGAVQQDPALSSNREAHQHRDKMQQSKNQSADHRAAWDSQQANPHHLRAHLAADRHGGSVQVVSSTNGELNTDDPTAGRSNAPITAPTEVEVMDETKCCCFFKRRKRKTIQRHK
# [18] = biological target: Mitogen-activated protein kinase kinase kinase 8 (Homo sapiens) (UniProt P41279); assay: Inhibition of COT1 (unknown origin) at 1 uM
# [19] = biological target: Ephrin type-A receptor 1 (Homo sapiens) (UniProt P21709); assay: Inhibition of EPHA1 (unknown origin) at 1 uM
# [20] = biological target: Serine/threonine-protein kinase/endoribonuclease IRE1 (Homo sapiens) (UniProt O75460); assay: Inhibition of ERN1 (unknown origin) at 1 uM
# [21] = biological target: Tyrosine-protein kinase Fyn (Homo sapiens) (UniProt P06241); assay: Inhibition of FYN (unknown origin) at 1 uM
# [22] = biological target: Insulin receptor-related protein (Homo sapiens) (UniProt P14616); assay: Inhibition of IRR (unknown origin) at 1 uM
# [23] = biological target: Tyrosine-protein kinase JAK1 (Homo sapiens) (UniProt P23458); assay: Inhibition of JAK1 (unknown origin) at 1 uM
# [24] = biological target: Vascular endothelial growth factor receptor 2 (Homo sapiens) (UniProt P35968); assay: Inhibition of KDR (unknown origin) at 1 uM
# [25] = biological target: Tyrosine-protein kinase Lyn (Homo sapiens) (UniProt P07948); assay: Inhibition of LYN (unknown origin) at 1 uM
# [26] = biological target: Serine/threonine-protein kinase MARK2 (Homo sapiens) (UniProt Q7KZI7); assay: Inhibition of MARK2 (unknown origin) at 1 uM
# [27] = biological target: Myosin light chain kinase 2, skeletal/cardiac muscle (Homo sapiens) (UniProt Q9H1R3); assay: Inhibition of MLCK2 (unknown origin) at 1 uM
# [28] = biological target: Serine/threonine-protein kinase MRCK alpha (Homo sapiens) (UniProt Q5VT25); assay: Inhibition of MRCKalpha (unknown origin) at 1 uM
# [29] = biological target: Serine/threonine-protein kinase Nek5 (Homo sapiens) (UniProt Q6P3R8); assay: Inhibition of NEK5 (unknown origin) at 1 uM
# Chain of Serine/threonine-protein kinase Nek5 (Homo sapiens) (Q6P3R8 whole entry): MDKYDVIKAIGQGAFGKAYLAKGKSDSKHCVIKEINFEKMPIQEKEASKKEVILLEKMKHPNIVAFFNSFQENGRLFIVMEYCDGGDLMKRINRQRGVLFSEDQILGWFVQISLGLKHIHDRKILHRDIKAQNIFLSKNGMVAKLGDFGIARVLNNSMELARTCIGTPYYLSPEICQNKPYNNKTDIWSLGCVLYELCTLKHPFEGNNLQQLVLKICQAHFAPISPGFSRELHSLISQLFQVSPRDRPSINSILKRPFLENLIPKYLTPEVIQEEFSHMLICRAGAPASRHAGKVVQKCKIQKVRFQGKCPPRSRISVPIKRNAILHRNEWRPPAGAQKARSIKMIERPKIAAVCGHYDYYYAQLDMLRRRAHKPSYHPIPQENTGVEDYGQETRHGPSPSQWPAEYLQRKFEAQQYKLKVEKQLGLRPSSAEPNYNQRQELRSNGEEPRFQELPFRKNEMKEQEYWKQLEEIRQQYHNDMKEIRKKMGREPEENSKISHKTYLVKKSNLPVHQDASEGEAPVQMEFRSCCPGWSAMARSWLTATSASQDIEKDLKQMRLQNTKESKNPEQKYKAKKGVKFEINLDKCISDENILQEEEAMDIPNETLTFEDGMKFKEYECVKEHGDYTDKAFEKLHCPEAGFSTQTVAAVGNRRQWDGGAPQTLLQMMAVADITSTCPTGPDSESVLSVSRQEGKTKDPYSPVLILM
# [30] = biological target: Serine/threonine-protein kinase NIM1 (Homo sapiens) (UniProt Q8IY84); assay: Inhibition of NIM1 (unknown origin) at 1 uM
# Chain of Serine/threonine-protein kinase NIM1 (Homo sapiens) (Q8IY84 whole entry): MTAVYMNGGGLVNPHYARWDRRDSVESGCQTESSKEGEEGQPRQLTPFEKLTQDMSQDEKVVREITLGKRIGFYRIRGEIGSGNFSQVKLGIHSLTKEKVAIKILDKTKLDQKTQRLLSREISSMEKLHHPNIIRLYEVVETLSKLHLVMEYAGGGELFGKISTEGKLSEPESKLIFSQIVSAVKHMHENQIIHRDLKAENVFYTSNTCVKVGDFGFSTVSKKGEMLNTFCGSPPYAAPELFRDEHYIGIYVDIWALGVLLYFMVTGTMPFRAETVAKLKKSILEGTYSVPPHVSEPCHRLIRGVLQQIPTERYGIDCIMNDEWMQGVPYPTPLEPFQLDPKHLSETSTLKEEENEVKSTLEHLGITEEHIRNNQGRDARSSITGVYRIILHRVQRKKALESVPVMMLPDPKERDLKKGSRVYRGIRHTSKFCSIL
# [31] = biological target: Serine/threonine-protein kinase PAK 1 (Homo sapiens) (UniProt Q13153); assay: Inhibition of PAK1 (unknown origin) at 1 uM
# Chain of Serine/threonine-protein kinase PAK 1 (Homo sapiens) (Q13153 whole entry): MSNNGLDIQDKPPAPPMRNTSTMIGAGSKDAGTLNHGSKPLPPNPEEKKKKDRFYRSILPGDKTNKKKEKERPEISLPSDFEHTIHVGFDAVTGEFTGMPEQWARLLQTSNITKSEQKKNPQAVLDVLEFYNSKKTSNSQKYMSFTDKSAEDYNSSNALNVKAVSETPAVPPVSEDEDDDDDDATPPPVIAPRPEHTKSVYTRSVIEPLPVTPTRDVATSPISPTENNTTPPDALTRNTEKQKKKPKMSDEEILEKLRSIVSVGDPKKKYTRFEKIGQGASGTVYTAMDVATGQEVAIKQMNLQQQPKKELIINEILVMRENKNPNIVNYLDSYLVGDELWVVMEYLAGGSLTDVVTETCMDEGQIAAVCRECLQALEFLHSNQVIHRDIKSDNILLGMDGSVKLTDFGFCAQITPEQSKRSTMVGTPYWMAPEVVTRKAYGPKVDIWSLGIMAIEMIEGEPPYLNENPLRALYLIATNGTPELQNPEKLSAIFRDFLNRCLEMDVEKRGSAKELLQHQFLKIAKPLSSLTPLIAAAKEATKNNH
# [32] = biological target: Serine/threonine-protein kinase PAK 4 (Homo sapiens) (UniProt O96013); assay: Inhibition of PAK4 (unknown origin) at 1 uM
# Chain of Serine/threonine-protein kinase PAK 4 (Homo sapiens) (O96013 whole entry, looked up): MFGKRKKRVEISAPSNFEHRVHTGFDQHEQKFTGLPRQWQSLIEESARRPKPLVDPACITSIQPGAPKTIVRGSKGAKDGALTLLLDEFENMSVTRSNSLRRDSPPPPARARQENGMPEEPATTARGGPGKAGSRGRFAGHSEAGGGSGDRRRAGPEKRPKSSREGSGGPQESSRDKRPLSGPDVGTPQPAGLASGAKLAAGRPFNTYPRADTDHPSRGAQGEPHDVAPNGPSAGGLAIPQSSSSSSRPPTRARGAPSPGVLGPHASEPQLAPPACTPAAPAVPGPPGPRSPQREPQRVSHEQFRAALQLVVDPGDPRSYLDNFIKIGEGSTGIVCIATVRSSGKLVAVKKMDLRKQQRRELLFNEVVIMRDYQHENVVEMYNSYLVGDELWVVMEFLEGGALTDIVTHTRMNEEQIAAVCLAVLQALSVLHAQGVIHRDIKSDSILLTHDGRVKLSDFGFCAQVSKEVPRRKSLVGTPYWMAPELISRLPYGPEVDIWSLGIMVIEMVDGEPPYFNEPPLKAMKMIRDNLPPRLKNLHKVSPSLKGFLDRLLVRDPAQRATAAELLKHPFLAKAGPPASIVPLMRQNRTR
# [33] = biological target: Platelet-derived growth factor receptor alpha (Homo sapiens) (UniProt P16234); assay: Inhibition of PDGFRalpha (unknown origin) at 1 uM
# [34] = biological target: Phosphorylase b kinase gamma catalytic chain, liver/testis isoform (Homo sapiens) (UniProt P15735); assay: Inhibition of PHKgamma2 (unknown origin) at 1 uM
# Chain of Phosphorylase b kinase gamma catalytic chain, liver/testis isoform (Homo sapiens) (P15735 whole entry, canonical isoform): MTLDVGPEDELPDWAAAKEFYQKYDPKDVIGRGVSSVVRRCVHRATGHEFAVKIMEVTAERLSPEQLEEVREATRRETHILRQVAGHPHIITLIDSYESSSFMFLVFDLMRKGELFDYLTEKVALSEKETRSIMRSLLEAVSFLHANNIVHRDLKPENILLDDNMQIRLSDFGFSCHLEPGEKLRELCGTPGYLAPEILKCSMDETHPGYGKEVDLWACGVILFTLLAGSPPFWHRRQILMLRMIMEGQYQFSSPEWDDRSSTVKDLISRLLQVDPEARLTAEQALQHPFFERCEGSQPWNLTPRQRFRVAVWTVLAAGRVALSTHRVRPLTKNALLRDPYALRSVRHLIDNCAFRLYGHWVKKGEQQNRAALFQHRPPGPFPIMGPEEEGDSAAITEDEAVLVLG
# [35] = biological target: Protein kinase C beta type (Homo sapiens) (UniProt P05771); assay: Inhibition of PKCb2 (unknown origin) at 1 uM
# [36] = biological target: Protein kinase C eta type (Homo sapiens) (UniProt P24723); assay: Inhibition of PKCeta (unknown origin)at 1 uM
# [37] = species on record: Homo sapiens; assay: Inhibition of PKG2 (unknown origin) at 1 uM
# [38] = biological target: Receptor-interacting serine/threonine-protein kinase 2 (Homo sapiens) (UniProt O43353); assay: Inhibition of RIPK2 (unknown origin) at 1 uM
# [39] = biological target: Receptor-interacting serine/threonine-protein kinase 3 (Homo sapiens) (UniProt Q9Y572); assay: Inhibition of RIPK3 (unknown origin) at 1 uM
# [40] = biological target: SRSF protein kinase 1 (Homo sapiens) (UniProt Q96SB4); assay: Inhibition of SRPK1 (unknown origin) at 1 uM
# Chain of SRSF protein kinase 1 (Homo sapiens) (Q96SB4 whole entry): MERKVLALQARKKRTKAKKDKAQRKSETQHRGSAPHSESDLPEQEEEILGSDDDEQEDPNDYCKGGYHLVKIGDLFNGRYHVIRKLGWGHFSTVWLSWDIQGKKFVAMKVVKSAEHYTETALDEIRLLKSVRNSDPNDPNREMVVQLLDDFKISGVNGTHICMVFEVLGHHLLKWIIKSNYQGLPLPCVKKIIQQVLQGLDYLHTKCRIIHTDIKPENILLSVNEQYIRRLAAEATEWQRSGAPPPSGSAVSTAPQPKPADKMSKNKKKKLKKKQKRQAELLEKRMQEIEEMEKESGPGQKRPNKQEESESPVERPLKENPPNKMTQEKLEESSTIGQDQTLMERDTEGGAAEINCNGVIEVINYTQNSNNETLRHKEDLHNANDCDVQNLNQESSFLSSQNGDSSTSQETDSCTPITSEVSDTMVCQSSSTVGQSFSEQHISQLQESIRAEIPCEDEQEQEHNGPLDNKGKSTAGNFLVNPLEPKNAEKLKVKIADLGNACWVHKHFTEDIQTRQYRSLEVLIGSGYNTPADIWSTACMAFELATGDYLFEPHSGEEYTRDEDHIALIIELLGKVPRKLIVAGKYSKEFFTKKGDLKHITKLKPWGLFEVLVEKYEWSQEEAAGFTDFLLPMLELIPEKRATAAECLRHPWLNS
# [41] = biological target: Testis-specific serine/threonine-protein kinase 6 (Homo sapiens) (UniProt Q9BXA6); assay: Inhibition of SSTK (unknown origin) at 1 uM
# Chain of Testis-specific serine/threonine-protein kinase 6 (Homo sapiens) (Q9BXA6 whole entry): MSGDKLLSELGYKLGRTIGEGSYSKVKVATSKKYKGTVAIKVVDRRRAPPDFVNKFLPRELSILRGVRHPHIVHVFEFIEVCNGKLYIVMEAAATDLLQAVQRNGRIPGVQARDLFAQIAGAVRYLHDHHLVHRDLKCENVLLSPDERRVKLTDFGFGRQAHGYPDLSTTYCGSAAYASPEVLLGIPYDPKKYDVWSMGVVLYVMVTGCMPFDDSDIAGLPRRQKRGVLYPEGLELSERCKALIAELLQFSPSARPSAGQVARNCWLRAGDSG
# [42] = biological target: Serine/threonine-protein kinase 32B (Homo sapiens) (UniProt Q9NY57); assay: Inhibition of STK32B (unknown origin) at 1 uM
# [43] = biological target: Testis-specific serine/threonine-protein kinase 3 (Homo sapiens) (UniProt Q96PN8); assay: Inhibition of TSSK3 (unknown origin) at 1 uM
smiles,measurement,setting,value
OCCOCc1cn(CCNc2nonc2/C(=N/O)Nc2ccc(F)c(Br)c2)nn1,AUC(0-inf),[1],3050 ng·h/mL
same,IC50,[2],2.16 nM
same,half-life,[3],43.2 min
same,inhibition,[4],Active
same,Activity,[5],Active
same,Activity,[6],Active
same,Activity,[7],8.83%
same,Activity,[8],Not Active
same,inhibition,[9],inactive
same,inhibition,[10],inactive
same,inhibition,[11],inactive
same,inhibition,[12],inactive
same,inhibition,[13],inactive
same,inhibition,[14],inactive
same,inhibition,[15],inactive
same,inhibition,[16],inactive
same,inhibition,[17],inactive
same,inhibition,[18],inactive
same,inhibition,[19],inactive
same,inhibition,[20],inactive
same,inhibition,[21],inactive
same,inhibition,[22],inactive
same,inhibition,[23],inactive
same,inhibition,[24],inactive
same,inhibition,[25],inactive
same,inhibition,[26],inactive
same,inhibition,[27],inactive
same,inhibition,[28],inactive
same,inhibition,[29],inactive
same,inhibition,[30],inactive
same,inhibition,[31],inactive
same,inhibition,[32],inactive
same,inhibition,[33],inactive
same,inhibition,[34],inactive
same,inhibition,[35],inactive
same,inhibition,[36],inactive
same,inhibition,[37],inactive
same,inhibition,[38],inactive
same,inhibition,[39],inactive
same,inhibition,[40],inactive
same,inhibition,[41],inactive
same,inhibition,[42],inactive
same,inhibition,[43],inactive
